From US10106553B2, “Substituted benzothiophenyl derivatives as GPR40 agonists for the treatment of type II diabetes” (Janssen Pharmaceutica NV, priority 2016, dated 2018)

Biological target: human GPR40 (Homo sapiens (Human), UniProt O14842)
Test: GPR40 Calcium Flux Assay;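 also: calcium flux followed with the Fluo-8 fluorescent dye, intensity read each second over 8 min as compounds were added to the cells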
Assay type: cell-based
Details: transfected HEK293 cells stably expressing human GPR40; Ca2+ mobilization; mean data; read-out: hGPR40 Ca^2+ Assay EC50

human GPR40, sequence (O14842 whole entry): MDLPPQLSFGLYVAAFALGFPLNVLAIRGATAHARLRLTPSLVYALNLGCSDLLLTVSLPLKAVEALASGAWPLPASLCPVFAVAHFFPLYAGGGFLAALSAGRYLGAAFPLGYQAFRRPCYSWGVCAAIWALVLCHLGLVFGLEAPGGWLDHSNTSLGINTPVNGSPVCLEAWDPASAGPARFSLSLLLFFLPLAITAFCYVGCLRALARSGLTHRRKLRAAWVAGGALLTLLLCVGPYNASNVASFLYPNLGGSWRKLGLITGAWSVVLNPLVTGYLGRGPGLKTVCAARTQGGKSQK

| SMILES | EC50 [nM] |
| --- | --- |
| CC#C[C@@H](Cc1nnn[nH]1)c1ccc(OCc2ccc3scc(-c4ccccc4Br)c3c2)cc1 [Cpd 4, (2S)-5-(2-(4-((3-(2-Bromophenyl)benzo[b]thiophen-5-yl)methoxy)phenyl)pent-3-yn-1-yl)-1H-tetrazole] | 20 |
| CC#C[C@@H](Cc1nnn[nH]1)c1ccc(OCc2ccc3scc(-c4cc(Cl)ncc4C)c3c2)cc1 [Cpd 5, (2S)-4-(5-((4-(1-(1H-Tetrazol-5-yl)pent-3-yn-2-yl)phenoxy)methyl)benzo[b]thiophen-3-yl)-2-chloro-5-methylpyridine] | 65 |
| CC#C[C@@H](Cc1nnn[nH]1)c1ccc(OCc2ccc3scc(-c4ccc(OCC5(O)CCS(=O)(=O)CC5)cc4C)c3c2)cc1 [Cpd 6, (2S)-4-((4-(5-((4-(1-(1H-Tetrazol-5-yl)pent-3-yn-2-yl)phenoxy)methyl)benzo[b]thiophen-3-yl)-3-methylphenoxy)methyl)-4-hydroxytetrahydro-2H-thiopyran 1,1-dioxide] | 190 |
| CC#C[C@@H](Cc1nnn[nH]1)c1ccc(OCc2ccc3scc(-c4ccc(OC5CCOCC5)cc4C)c3c2)cc1 [Cpd 9, (2S)-5-(2-(4-((3-(2-Methyl-4-((tetrahydro-2H-pyran-4-yl)oxy)phenyl)benzo[b]thiophen-5-yl)methoxy)phenyl)pent-3-yn-1-yl)-1H-tetrazole] | 270 |
| CC#C[C@@H](Cc1nnn[nH]1)c1ccc(OCc2ccc3scc(-c4ccc(S(C)(=O)=O)cc4C)c3c2)cc1 [Cpd 14, (2S)-5-(2-(4-((3-(2-Methyl-4-(methylsulfonyl)phenyl)benzo[b]thiophen-5-yl)methoxy)phenyl)pent-3-yn-1-yl)-1H-tetrazole] | 130 |
| CC#C[C@@H](Cc1nnn[nH]1)c1ccc(OCc2ccc3scc(-c4ccc(C5CCS(=O)(=O)CC5)cc4C)c3c2)cc1 [Cpd 17, (2S)-4-(4-(5-((4-(1-(1H-Tetrazol-5-yl)pent-3-yn-2-yl)phenoxy)methyl)benzo[b]thiophen-3-yl)-3-methylphenyl)tetrahydro-2H-thiopyran 1,1-dioxide] | 97 |
| CC#C[C@@H](Cc1nnn[nH]1)c1ccc(OCc2ccc3sc(C)c(-c4ccc(OC5CCS(=O)(=O)CC5)cc4C)c3c2)cc1 [Cpd 18, 4-(4-(5-((4-((2S)-1-(1H-Tetrazol-5-yl)pent-3-yn-2-yl)phenoxy)methyl)-2-methylbenzo[b]thiophen-3-yl)-3-methylphenoxy)tetrahydro-2H-thiopyran 1,1-dioxide] | 80 |
| CC#C[C@@H](Cc1nnn[nH]1)c1ccc(OCc2ccc3scc(-c4c(C)cccc4C)c3c2)cc1 [Cpd 20, (2S)-5-(2-(4-((3-(2,6-Dimethylphenyl)benzo[b]thiophen-5-yl)methoxy)phenyl)pent-3-yn-1-yl)-1H-tetrazole] | 24 |
| CC#C[C@@H](Cc1nnn[nH]1)c1ccc(OCc2ccc3scc(-c4cnc(OCCOC)cc4C)c3c2)cc1 [Cpd 21, (2S)-5-(5-((4-(1-(1H-Tetrazol-5-yl)pent-3-yn-2-yl)phenoxy)methyl)benzo[b]thiophen-3-yl)-2-(2-methoxyethoxy)-4-methylpyridine] | 51 |
| CC#C[C@@H](Cc1nnn[nH]1)c1ccc(OCc2ccc3scc(-c4ncnn4C)c3c2)cc1 [Cpd 23, (2S)-5-(2-(4-((3-(1-Methyl-1H-1,2,4-triazol-5-yl)benzo[b]thiophen-5-yl)methoxy)phenyl)pent-3-yn-1-yl)-1H-tetrazole] | 1740 |
| CC#C[C@@H](Cc1nnn[nH]1)c1ccc(OCc2ccc3scc(-c4nccnc4C)c3c2)cc1 [Cpd 24, (2S)-2-(5-((4-(1-(1H-Tetrazol-5-yl)pent-3-yn-2-yl)phenoxy)methyl)benzo[b]thiophen-3-yl)-3-methylpyrazine] | 550 |
| CC#C[C@@H](Cc1nnn[nH]1)c1ccc(OCc2ccc3scc(-c4ncc(OCCOC)cc4C)c3c2)cc1 [Cpd 26, (2S)-2-(5-((4-(1-(1H-Tetrazol-5-yl)pent-3-yn-2-yl)phenoxy)methyl)benzo[b]thiophen-3-yl)-5-(2-methoxyethoxy)-3-methylpyridine] | 34 |
| CC#C[C@@H](Cc1nnn[nH]1)c1ccc(OCc2ccc3scc(-c4cccc5c4OCCO5)c3c2)cc1 [Cpd 27, (2S)-5-(2-(4-((3-(2,3-Dihydrobenzo[b][1,4]dioxin-5-yl)benzo[b]thiophen-5-yl)methoxy)phenyl)pent-3-yn-1-yl)-1H-tetrazole] | 61 |
| CC#C[C@@H](Cc1nnn[nH]1)c1ccc(OCc2ccc3scc(-c4cccc5c4CCN5C(=O)CC)c3c2)cc1 [Cpd 28, (2S)-1-(4-(5-((4-(1-(1H-tetrazol-5-yl)pent-3-yn-2-yl)phenoxy)methyl)benzo[b]thiophen-3-yl)indolin-1-yl)propan-1-one] | 27 |
| CC#C[C@@H](Cc1nnn[nH]1)c1ccc(OCc2ccc3scc(-c4cc(NS(C)(=O)=O)ccc4C)c3c2)cc1 [Cpd 29, (2S)—N-(3-(5-((4-(1-(1H-tetrazol-5-yl)pent-3-yn-2-yl)phenoxy)methyl)benzo[b]thiophen-3-yl)-4-methylphenyl)methanesulfonamide] | 420 |
| CC#C[C@@H](Cc1nnn[nH]1)c1ccc(OCc2ccc3scc(-c4cccc5c4CCC(C)(C)O5)c3c2)cc1 [Cpd 30, (2S)-5-(2-(4-((3-(2,2-Dimethylchroman-5-yl)benzo[b]thiophen-5-yl)methoxy)phenyl)pent-3-yn-1-yl)-1H-tetrazole] | 430 |
| CC#C[C@@H](Cc1nnn[nH]1)c1ccc(OCc2ccc3scc(-c4ccccc4Cl)c3c2)cc1 [Cpd 32, (2S)-5-(2-(4-((3-(2-Chlorophenyl)benzo[b]thiophen-5-yl)methoxy)phenyl)pent-3-yn-1-yl)-1H-tetrazole] | 11 |
| CC#C[C@@H](Cc1nnn[nH]1)c1ccc(OCc2ccc3scc(-c4cc(OCCOC)cnc4C)c3c2)cc1 [Cpd 33, (2S)-3-(5-((4-(1-(1H-Tetrazol-5-yl)pent-3-yn-2-yl)phenoxy)methyl)benzo[b]thiophen-3-yl)-5-(2-methoxyethoxy)-2-methylpyridine] | 8 |
| CC#C[C@@H](Cc1nnn[nH]1)c1ccc(OCc2ccc3sc(C(F)(F)F)c(C4CC4)c3c2)cc1 [Cpd 37, (2S)-5-(2-(4-((3-Cyclopropyl-2-(trifluoromethyl)benzo[b]thiophen-5-yl)methoxy)phenyl)pent-3-yn-1-yl)-1H-tetrazole] | 590 |
| CC#C[C@@H](Cc1nnn[nH]1)c1ccc(OCc2ccc3scc(-c4ccccc4C)c3c2)nc1 [Cpd 40, (2R)-5-(1-(1H-Tetrazol-5-yl)pent-3-yn-2-yl)-2-((3-(2-methylphenyl)benzo[b]thiophen-5-yl)methoxy)pyridine] | 58 |
| CC#C[C@@H](Cc1nnn[nH]1)c1ccc(OCc2ccc3scc(-c4ccc(OCCOC)cc4C)c3c2)nc1 [Cpd 41, (2R)-5-(1-(1H-Tetrazol-5-yl)pent-3-yn-2-yl)-2-((3-(4-(2-methoxyethoxy)-2-methylphenyl)benzo[b]thiophen-5-yl)methoxy)pyridine] | 19 |
| CC#C[C@@H](Cc1nnn[nH]1)c1ccc(OCc2ccc3scc(-c4cccc(OCCOC)c4C)c3c2)nc1 [Cpd 42, (2R)-5-(1-(1H-Tetrazol-5-yl)pent-3-yn-2-yl)-2-((3-(3-(2-methoxyethoxy)-2-methylphenyl)benzo[b]thiophen-5-yl)methoxy)pyridine] | 120 |
